From US10611750B2, “Tetrahydroquinoline compositions as bet bromodomain inhibitors” (FORMA Therapeutics, Inc., priority 2013, dated 2020) come the findings set out here.

Each structure is given as a SMILES string. Read-outs that look alike come from different tables or passages of the source. Where only a bound is given, the exact number is not on record here.

Assay [1] has as its target T1, BRD4 Bromodomain 2 (BRD4 BD2) (Homo sapiens, UniProt O60885).
T1 construct: 333-460 were cloned, expressed, and purified to homogeneity
As to the kind of experiment: AlphaScreen binding assay, BRD4 BD2. The following applies: His-tagged BRD4 BD2 100 nM, biotinylated H4 (1-21) K5/8/12/16 tetra-acetylated peptide 100 nM, compounds listed under IC50 range headings. In a few lines:
(§1)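 Compound dilution series were mixed with His-tagged BRD4 bromodomain and biotinylated tetra-acetylated H4 (1-21) peptide at pH 7.3 (BD1 and peptide at 50 nM, BD2 and peptide at 100 nM). Donor and acceptor beads were then added, and plates were equilibrated at least 1 h before reading. IC50 values were fitted with a four-parameter logistic model.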

Assay [2] concerns acute myelocytic leukemia (AML) cell line MV4-11. The assay can be described thus: Oncology cell growth assay (3-day proliferation, CellTiter-Glo). The assay is classed as cell-based. The following applies: Homo sapiens, MV4-11 cells, 3000 cells/well, compounds listed under IC50 range headings, read-out: MV411 IC50 (gIC50, inhibition of proliferation). In a few lines: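 MV4-11 AML cells (RPMI 1640, 10% FBS) plated at 3000 cells/well and exposed 72 h to compound at final 10 to 0.0045 μM (3-fold series). Viability read by CellTiter-Glo luminescence; gIC50 from four-parameter logistic fit between DMSO control and no-cell background.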

Assay [3] deals with T2, BRD4 Bromodomain 1 (BRD4 BD1) (Homo sapiens, UniProt O60885).
T2 construct: 44-168 and BRD4 BD2
As to the kind of experiment: AlphaScreen binding assay, BRD4 BD1. The following applies: His-tagged BRD4 BD1 50 nM, biotinylated H4 (1-21) K5/8/12/16 tetra-acetylated peptide 50 nM, compounds listed under IC50 range headings. In outline: as §1
(Alpha assays give light when donor and acceptor beads are brought close together.)

In the case of `CC(=O)N1c2ccc(-c3cnn(C4CC4)c3)c(Oc3ncccc3C(F)(F)F)c2CC[C@@H]1C` [I-86, (S)-1-(6-(1-cyclopropyl-1H-pyrazol-4-yl)-2-methyl-5-(3-(trifluoromethyl)pyridin-2-yloxy)-3,4-dihydroquinolin-1 (2H)-yl)ethanone], the IC50 was under 50 nM in assay [1]; under 500 nM in assay [2] (MV4-11, 72 h); 100 to 1000 nM in assay [3].

In the case of `CC(=O)N1c2ccc(-c3cnn(C4CC4)c3)c(Oc3cnccn3)c2CC[C@@H]1C` [I-88, (S)-1-(6-(1-cyclopropyl-1H-pyrazol-4-yl)-2-methyl-5-(pyrazin-2-yloxy)-3,4-dihydroquinolin-1(2H)-yl)ethanone], the IC50 in assay [1] was under 50 nM; in assay [2] (MV4-11, 72 h), under 500 nM; in assay [3], 100 to 1000 nM.

On to `CC(=O)N1c2ccc(-c3cnn(C4CC4)c3)c(Oc3ccccn3)c2CC[C@@H]1C` [I-89, (S)-1-(6-(1-cyclopropyl-1H-pyrazol-4-yl)-2-methyl-5-(pyridin-2-yloxy)-3,4-dihydroquinolin-1(2H)-yl)ethanone], for which the IC50 in assay [1] was 50 to 500 nM; in assay [2] (MV4-11, 72 h) it was under 500 nM; in assay [3] it was 100 to 1000 nM.

In the case of `CC(=O)N1c2ccc(-c3cnn(C4CC4)c3)c(Oc3ccc(C#N)nn3)c2CC[C@@H]1C` [I-91, (S)-6-(1-acetyl-6-(1-cyclopropyl-1H-pyrazol-4-yl)-2-methyl-1,2,3,4-tetrahydroquinolin-5-yloxy)pyridazine-3-carbonitrile], the IC50 in assay [1] is 50 to 500 nM; in assay [2] (MV4-11, 72 h) it was under 500 nM; in assay [3] it was 100 to 1000 nM.

For `CC(=O)N1c2ccc(-c3cnn(C4CC4)c3)c(Oc3ncc(C)cn3)c2CC[C@@H]1C` [I-92, (S)-1-(6-(1-cyclopropyl-1H-pyrazol-4-yl)-2-methyl-5-(5-methylpyrimidin-2-yloxy)-3,4-dihydroquinolin-1 (2H)-yl)ethanone], the IC50 in assay [1] was under 50 nM; in assay [2] (MV4-11, 72 h), under 500 nM; in assay [3], 100 to 1000 nM.

For `CC(=O)N1c2ccc(-c3cnn(C4CC4)c3)c(Oc3ccnc(C(F)(F)F)n3)c2CC[C@@H]1C` [I-93, (S)-1-(6-(1-cyclopropyl-1H-pyrazol-4-yl)-2-methyl-5-(2-(trifluoromethyl)pyrimidin-4-yloxy)-3,4-dihydroquinolin-1(2H)-yl)ethanone], the IC50 was 50 to 500 nM in assay [1]; under 500 nM in assay [2] (MV4-11, 72 h); 100 to 1000 nM in assay [3].

Consider `C[C@H]1CCc2c(ccc(-c3cnn(C4CCNCC4)c3)c2OC2CCC2)N1C(=O)C1CC1` [I-99, (2S)-5-cyclobutoxy-1-cyclopropanecarbonyl-2-methyl-6-[1-(piperidin-4-yl)-1H-pyrazol-4-yl]-1,2,3,4-tetrahydroquinoline], for which the IC50 was under 50 nM in assay [1]; under 500 nM in assay [2] (MV4-11, 72 h); 100 to 1000 nM in assay [3].

Consider `CCCOc1c(-c2cnn(C3CCNCC3)c2)ccc2c1CC[C@H](C)N2C(=O)C1CC1` [I-100, (S)-cyclopropyl(2-methyl-6-(1-(piperidin-4-yl)-1H-pyrazol-4-yl)-5-propoxy-3,4-dihydroquinolin-1(2H)-yl)methanone], for which the IC50 in assay [1] was under 50 nM; in assay [2] (MV4-11, 72 h), under 500 nM; in assay [3], 100 to 1000 nM.

Regarding `C[C@H]1CCc2c(ccc(-c3cnn(C4CNC4)c3)c2OC2CCC2)N1C(=O)C1CC1` [I-101, (S)-(6-(1-(azetidin-3-yl)-1H-pyrazol-4-yl)-5-cyclobutoxy-2-methyl-3,4-dihydroquinolin-1(2H)-yl)(cyclopropyl)methanone], the IC50 in assay [1] is under 50 nM; in assay [2] (MV4-11, 72 h), under 500 nM; in assay [3], 100 to 1000 nM.

On to `CCCOc1c(-c2cnn(C3CNC3)c2)ccc2c1CC[C@H](C)N2C(=O)C1CC1` [I-102, (S)-(6-(1-(azetidin-3-yl)-1H-pyrazol-4-yl)-2-methyl-5-propoxy-3,4-dihydroquinolin-1(2H)-yl)(cyclopropyl)methanone], for which the IC50 in assay [1] is under 50 nM; in assay [2] (MV4-11, 72 h) it was under 500 nM; in assay [3] it was 100 to 1000 nM.

Take `CCCOc1c(-c2cnn(C3CCNCC3)c2)ccc2c1CC[C@H](C)N2C(C)=O` [I-104, (S)-1-(2-methyl-6-(1-(piperidin-4-yl)-1H-pyrazol-4-yl)-5-propoxy-3,4-dihydroquinolin-1 (2H)-yl)ethanone]: the IC50 was under 50 nM in assay [1]; under 500 nM in assay [2] (MV4-11, 72 h); under 100 nM in assay [3].

For `CCCOc1c(-c2cnn(C3CCNCC3)c2)ccc2c1CC[C@H](C)N2C(=O)OC` [I-107, (S)-methyl 2-methyl-6-(1-(piperidin-4-yl)-1H-pyrazol-4-yl)-5-propoxy-3,4-dihydroquinoline-1(2H)-carboxylate], the IC50 in assay [1] is 50 to 500 nM; in assay [2] (72 hours), under 500 nM; in assay [3], 100 to 1000 nM.

On to `COC(=O)N1c2ccc(-c3cnn(C4CCNC4)c3)c(OC3CCC3)c2CC[C@@H]1C` (stereo partly drawn) [I-108, (2S)-methyl 5-cyclobutoxy-2-methyl-6-(1-(pyrrolidin-3-yl)-1H-pyrazol-4-yl)-3,4-dihydroquinoline-1(2H)-carboxylate], for which the IC50 is under 50 nM in assay [1]; under 500 nM in assay [2] (MV4-11, 72 h); 100 to 1000 nM in assay [3].

`CC(=O)N1c2ccc(-c3cnn(C4CC4)c3)c(OC3CC3)c2CC[C@@H]1C` [I-113, (S)-1-(5-cyclopropoxy-6-(1-cyclopropyl-1H-pyrazol-4-yl)-2-methyl-3,4-dihydroquinolin-1(2H)-yl)ethanone]: the IC50 in assay [1] is 50 to 500 nM; in assay [2] (MV4-11, 72 h), under 500 nM; in assay [3], 100 to 1000 nM.

Regarding `CCCOc1c(-c2ccc(S(C)(=O)=O)cn2)ccc2c1CC[C@H](C)N2C(C)=O` [I-114, (S)-1-(2-methyl-6-(5-(methylsulfonyl)pyridin-2-yl)-5-propoxy-3,4-dihydroquinolin-1(2H)-yl)ethanone], the IC50 was 50 to 500 nM in assay [1]; over 1000 nM in assay [2] (MV4-11, 72 h); 1000 to 10000 nM in assay [3].

Consider `CCCOc1c(-c2ccc(NS(C)(=O)=O)cn2)ccc2c1CC[C@H](C)N2C(C)=O` [I-115, (S)—N-(6-(1-acetyl-2-methyl-5-propoxy-1,2,3,4-tetrahydroquinolin-6-yl)pyridin-3-yl)methanesulfonamide], for which the IC50 in assay [1] was 50 to 500 nM; in assay [2] (MV4-11, 72 h), over 1000 nM; in assay [3], 1000 to 10000 nM.

`CC(=O)N1c2ccc(-c3ccc(S(C)(=O)=O)cn3)c(OCC(=O)N(C)C)c2CC[C@@H]1C` [I-116, (S)-2-(1-acetyl-2-methyl-6-(5-(methylsulfonyl)pyridin-2-yl)-1,2,3,4-tetrahydroquinolin-5-yloxy)-N,N-dimethylacetamide]: the IC50 is 50 to 500 nM in assay [1]; over 1000 nM in assay [2] (MV4-11, 72 h); at least 10000 nM in assay [3].

For the compound `CCCOc1c(-c2nc3ccccc3o2)ccc2c1CC[C@H](C)N2C(C)=O` [I-117, (S)-1-(6-(benzo[d]oxazol-2-yl)-2-methyl-5-propoxy-3,4-dihydroquinolin-1(2H)-yl)ethanone], the IC50 was 50 to 500 nM in assay [1]; over 1000 nM in assay [2] (MV4-11, 72 h); 1000 to 10000 nM in assay [3].

On to `CCCOc1c(-c2cc3ccccn3n2)ccc2c1CC[C@H](C)N2C(C)=O` [I-118, (S)-1-(2-methyl-5-propoxy-6-(pyrazolo[1,5-a]pyridin-2-yl)-3,4-dihydroquinolin-1(2H)-yl)ethanone], for which the IC50 in assay [1] was at least 500 nM; in assay [2] (MV4-11, 72 h), over 1000 nM; in assay [3] it was 1000 to 10000 nM.

Regarding `CCCOc1c(-c2cn3ccccc3n2)ccc2c1CC[C@H](C)N2C(C)=O` [I-119, (S)-1-(6-(imidazo[1,2-a]pyridin-2-yl)-2-methyl-5-propoxy-3,4-dihydroquinolin-1(2H)-yl)ethanone], the IC50 in assay [1] was in the range of 50 to 500 nM; in assay [2] (MV4-11, 72 h) it was 500 to 1000 nM; in assay [3], 1000 to 10000 nM.

In the case of `CCCOc1c(-c2nc3ccccc3s2)ccc2c1CC[C@H](C)N2C(C)=O` [I-120, (S)-1-(6-(benzo[d]thiazol-2-yl)-2-methyl-5-propoxy-3,4-dihydroquinolin-1(2H)-yl)ethanone], the IC50 in assay [1] was at least 500 nM; in assay [2] (MV4-11, 72 h) it was over 1000 nM; in assay [3] it was 1000 to 10000 nM.

Regarding `CCCOc1c(-c2nc3ccccc3[nH]2)ccc2c1CC[C@H](C)N2C(C)=O` [I-121, (S)-1-(6-(1H-benzo[d]imidazol-2-yl)-2-methyl-5-propoxy-3,4-dihydroquinolin-1(2H)-yl)ethanone], the IC50 in assay [1] fell in the range of 50 to 500 nM; in assay [2] (MV4-11, 72 h), 500 to 1000 nM; in assay [3] it was 1000 to 10000 nM.

As for `COC(=O)N1c2ccc(-c3cnn(C4CCNCC4)c3)c(Oc3ccc(Cl)cc3C#N)c2CC[C@@H]1C` [I-132, (S)-methyl 5-(4-chloro-2-cyanophenoxy)-2-methyl-6-(1-(piperidin-4-yl)-1H-pyrazol-4-yl)-3,4-dihydroquinoline-1(2H)-carboxylate], the IC50 was under 50 nM in assay [1]; under 500 nM in assay [2] (MV4-11, 72 h); 100 to 1000 nM in assay [3].

As for `COC(=O)N1c2ccc(-c3cnn(C4CCNCC4)c3)c(Oc3ccc(F)cc3C#N)c2CC[C@@H]1C` [I-133, (S)-methyl 5-(2-cyano-4-fluorophenoxy)-2-methyl-6-(1-(piperidin-4-yl)-1H-pyrazol-4-yl)-3,4-dihydroquinoline-1(2H)-carboxylate], the IC50 in assay [1] is under 50 nM; in assay [2] (MV4-11, 72 h), under 500 nM; in assay [3] it was 100 to 1000 nM.
